# Laboratory results reported in patent US7981893B2, “Heteroaryl compounds, compositions thereof, and methods of treatment therewith” (Signal Pharmaceuticals, LLC, priority 2006, dated 2011).
# How the values were obtained:
# Format in all cases: biochemical
# PKCθ = molecular target: T1, PKCθ (Homo sapiens, UniProt Q04759); test: PKCθ IMAP Assay; conditions: IMAP fluorescence polarization screening assay, 35 μM ATP
# T1 construct: purchased Invitrogen
# Summary of the method: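 IMAP fluorescence polarization with 0.5 nM PKCθ, 100 nM FAM-AKRRRLSSLRA, 35 μM ATP, 2.5% DMSO, pH 7.6 HEPES with phosphatidyl serine/diacylglycerol. Compound pre-incubated with enzyme 45 min; reaction 60 min, then binding beads ≥30 min before FP read.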
# Syk = molecular target: T2, Syk (Homo sapiens, UniProt P43405); test: Syk HTRF Assay; conditions: HTRF screening assay
# T2 construct: purchased Carna Biosciences 08-176
# Method: 5 μl/well DMSO is added to Column 2 Wells A-O and 29.5 μl to well P2 of Greiner 384-well polypropylene plate. 20 μl/well DMSO is added to Columns 1 and 3-12.
# 25 mM compound solutions are prepared by the addition of 25 μl of 30 mM compound to Column 2 and 0.5 μl 30 mM reference control to well P2.
# Serial dilution is then performed by the following steps: (i) compounds in Column 2 are mixed by pipetting 20 μl up and down 6×; (ii) 10 μl/well compounds in DMSO are transferred from one column to the next column for Columns 2-11; (iii) wells are mixed by pipetting 20 μl up and down 6×; (iv) tips washed 3×25 μl DMSO, 2×25 μl next DMSO.
# The following buffers are prepared:
# Dilution Buffer: 50 mM HEPES pH 7.6; 1 mM DTT; 10 mM MgCl2; 0.01% Triton X100; 0.01% BSA; 0.1 mM EDTA.
# Enzyme Mix in Dilution Buffer: 8.621 ng/ml Syk (Carna Biosciences 08-176).
# Start Mix in Dilution Buffer: 87.5 μM ATP; 80 nM Substrate Peptide (American Peptide Company 332722).
# 14.5 μl/well Enzyme Mix or Dilution Buffer (Background Controls) is added to Costar 384-well black plates.
# Compound addition and mixture is performed by the following steps: (i) 0.5 μl/well DMSO/compounds in DMSO transferred from Greiner 384-well polypropylene plate to left half of assay plate containing 14.5 μl/well Enzyme Mix and Dilution Buffer; (ii) Mix by pipetting 10 μl up and down 4×; (iii) tips are washed 4×10 μl in DMSO, 2×20 μl in other DMSO; (iv) steps i-iii are repeated with transfer to right half of assay plate; (v) steps i-iv are repeated with each compound/assay plate until all plates are completed.
# 10 μl/well Start Mix is added and incubated at room temperature on shaker for 2 minutes (1 hour total reaction time).
# Stop Solution in Dilution Buffer: 120 mM EDTA
# Antibody Mix in Dilution Buffer: 4.86 μg/ml DyLight 647 Streptavidin (Pierce 21824); 1 μg/ml Lance Eu-Anti-Phosphotyrosine (PerkinElmer AD0069).
# 5 μl/well[…] is added and incubated at room temperature on shaker for 2 minutes.
# […] Antibody Mix is added and Incubated at room temperature on shaker for 2 minutes (4 hours to overnight total time).
# Plates are read at 665 nm and 620 nm emission on Analyst GT protocol HTRF_SP_A or EnVision protocol Steve's TR-FRET.
# mTOR = molecular target: T3, mTOR (Homo sapiens, UniProt P42345); test: mTOR HTR-FRET Assay; conditions: HTR-FRET screening assay, GST-p70S6 kinase fragment substrate
# T3 construct: Dilute TOR fraction 1:14 in “Simple TOR Buffer”
# Method: The following is an example of an assay that can be used to determine the mTOR inhibitory activity of a test compound. Reagents are prepared as follows:
# “Simple TOR buffer” (used to dilute high glycerol TOR fraction): 10 mM Tris pH 7.4, 100 mM NaCl, 0.1% Tween-20, 1 mM DTT (from 1M stock frozen at −20° C. just prior to use). For convenience a large quantity of “Simple TOR buffer” w/o DTT can be stored at 4° C. It can be brought to room temperature and DTT added just prior to dilution of TOR fraction.
# 5×KB/5×Mn/5×ATP solution (used to dilute substrate GST-p70S6kin 81 a.a. just prior to use) (40 ml screen quantity shown):
# Enzyme solution: Dilute TOR fraction 1:14 in “Simple TOR Buffer”. For current lot that is 640 μg/ml TOR fraction diluted 14× to yield 45.7 μg/ml TOR in buffer (i.e. 7.85 ml TOR pooled fraction+102.1 ml Simple TOR buffer=110 ml 14× diluted TOR fraction). Each Enzyme Lot must be QC'd prior to assay.
# Substrate solution: This may be prepared just prior to assay if preferred. Dilute 5.3 mg/ml GST-p70S6kinase fragment stock to 3.5 μg/ml (97 nM) working stock in 5×KB/5×Mn/5×ATP solution (i.e. 26.41 μL (5.3 mg/ml) GST-p70S6+40 ml 5×KB/5×Mn/5×ATP=40 ml 3.5 μg/ml (97 nM)).
# Assay Buffer (for dilution of Antibodies used in Antibody Detection Reagent):
# Antibody Detection Reagent (this reagent should be made just prior to addition to Assay Plates):
# Using PlateTrak program (Screen) or Matrix Pipettor (SAR), 19.5 μL of diluted TOR fraction is added to assay plate in all test, reference or positive control wells. 19.5 μL of “Simple TOR buffer” is added to all negative control wells. If treating multiple plates with the same compounds, can increase volume of enzyme to multiples of 19.5 μL in a tall 384 well polypropylene plate.
# Using EP3, 0.5 μl of test, reference or control DMSO is added to each well with mixing. Plates are incubated for 30 minutes at room temperature.
# Using PlateTrak program (Screen) or Matrix Pipettor (SAR) 5 μL of 5×KB/5×Mn/5×ATP/5× substrate solution is added to each well of the assay plate to start the reaction. The solutions are mixed well and incubated for 2 hours at room temperature.
# Using PlateTrak program (Screen) or Matrix Pipettor (SAR) 5 μL of 60 mM EDTA is added to stop the reaction. The solutions are mixed well and allowed to sit for 15-20 minutes before the next step.
# Using PlateTrak program (Screen) or Matrix Pipettor (SAR) 10 μl of Antibody Detection Reagent is added. The solutions are mixes well and incubated for 5 hours to O/N to allow antibodies to form complexes with phosphorylated substrate.
# Plates are read on AnalystHT using protocol Multi-Method protocol.
# T1 sequence (Q04759 whole entry): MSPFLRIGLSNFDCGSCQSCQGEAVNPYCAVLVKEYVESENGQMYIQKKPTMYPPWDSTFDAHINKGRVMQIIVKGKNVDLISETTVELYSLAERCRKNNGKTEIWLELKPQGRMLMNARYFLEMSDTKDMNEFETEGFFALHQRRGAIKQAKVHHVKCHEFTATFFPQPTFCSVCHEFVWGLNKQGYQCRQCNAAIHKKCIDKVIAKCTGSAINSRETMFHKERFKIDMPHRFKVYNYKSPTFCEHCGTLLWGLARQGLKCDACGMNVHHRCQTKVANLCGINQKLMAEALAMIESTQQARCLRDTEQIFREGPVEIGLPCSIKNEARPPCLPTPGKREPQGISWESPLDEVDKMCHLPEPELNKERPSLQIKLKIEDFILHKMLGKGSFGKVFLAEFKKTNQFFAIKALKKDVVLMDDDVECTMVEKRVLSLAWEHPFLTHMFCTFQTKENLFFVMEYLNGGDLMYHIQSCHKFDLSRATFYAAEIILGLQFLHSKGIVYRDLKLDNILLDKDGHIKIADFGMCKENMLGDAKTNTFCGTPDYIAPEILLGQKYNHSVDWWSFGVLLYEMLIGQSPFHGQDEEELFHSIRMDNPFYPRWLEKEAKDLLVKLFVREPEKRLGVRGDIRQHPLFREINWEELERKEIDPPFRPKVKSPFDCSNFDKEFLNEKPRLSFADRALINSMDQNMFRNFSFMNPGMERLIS
Compound,IC50 (PKCθ),IC50 (Syk),IC50 (mTOR)
"CC(C)[C@@H](CO)n1c(=O)[nH]c2ncc(-c3ccccc3)nc21 [Compound 1, (S)-1-(1-hydroxy-3-methylbutan-2-yl)-6-phenyl-1H-imidazo[4,5-b]pyrazin-2(3H)-one]",> 30 µM,> 30 µM,–
"COc1ccc(C(C)C)cc1-c1cnc2[nH]c(=O)n([C@H](CO)C(C)C)c2n1 [Compound 8, (S)-1-(1-hydroxy-3-methylbutan-2-yl)-6-(5-isopropyl-2-methoxyphenyl)-1H-imidazo[4,5-b]pyrazin-2(3H)-one]",0.1 to 5 µM,0.1 to 5 µM,–
"CC(C)[C@@H](CO)n1c(=O)[nH]c2ncc(-c3cccc4ncccc34)nc21 [Compound 11, (S)-1-(1-hydroxy-3-methylbutan-2-yl)-6-(quinolin-5-yl)-1H-imidazo[4,5-b]pyrazin-2(3H)-one]",20.1 to 30 µM,> 30 µM,> 30 µM
"COc1ccc(C(C)C)cc1-c1cnc2[nH]c(=O)n([C@@H](CO)C(C)C)c2n1 [Compound 13, (R)-1-(1-hydroxy-3-methylbutan-2-yl)-6-(5-isopropyl-2-methoxyphenyl)-1H-imidazo[4,5-b]pyrazin-2(3H)-one]",10.1 to 20 µM,5.1 to 10 µM,–
"COc1ccc(C(C)C)cc1-c1cnc2[nH]c(=O)n([C@H](C)C(C)C)c2n1 [Compound 28, (R)-6-(5-isopropyl-2-methoxyphenyl)-1-(3-methylbutan-2-yl)-1H-imidazo[4,5-b]pyrazin-2(3H)-one]",0.1 to 5 µM,0.1 to 5 µM,–
"COc1ccc(C(C)C)cc1-c1cnc2[nH]c(=O)n([C@@H](C)C(C)C)c2n1 [Compound 30, (S)-6-(5-isopropyl-2-methoxyphenyl)-1-(3-methylbutan-2-yl)-1H-imidazo[4,5-b]pyrazin-2(3H)-one]",20.1 to 30 µM,0.1 to 5 µM,–
"Cc1nc2[nH]c(=O)n([C@H](C)c3ccccc3)c2nc1-c1cccc2ncccc12 [Compound 69, 5-methyl-1-((R)-1-phenylethyl)-6-(quinolin-5-yl)-1H-imidazo[4,5-b]pyrazin-2(3H)-one]",5.1 to 10 µM,–,> 30 µM
"CC(c1ccccc1)n1c(=O)[nH]c2ncc(-c3ccc4ncccc4c3)nc21 (stereo not drawn) [Compound 73, 1-(1-phenylethyl)-6-(quinolin-6-yl)-1H-imidazo[4,5-b]pyrazin-2(3H)-one]",> 30 µM,–,5.1 to 10 µM
"CC(c1ccccc1)n1c(=O)[nH]c2ncc(-c3cccc(NS(C)(=O)=O)c3)nc21 (stereo not drawn) [Compound 84, N-(3-(2-oxo-3-(1-phenylethyl)-2,3-dihydro-1H-imidazo[4,5-b]pyrazin-5-yl)phenyl)methanesulfonamide]",10.1 to 20 µM,–,0.1 to 5 µM
"CC(c1ccccc1)n1c(=O)[nH]c2ncc(-c3ccc(S(C)(=O)=O)cc3)nc21 (stereo not drawn) [Compound 85, 6-(4-(methylsulfonyl)phenyl)-1-(1-phenylethyl)-1H-imidazo[4,5-b]pyrazin-2(3H)-one]",> 30 µM,–,5.1 to 10 µM
